In PubChem BioAssay AID328 (DTP/NCI, 2004) one finds T/C data, which are given here for 20 molecules.

SMILES strings stand for the structures. Several values for one entry are separate records, joined by “and”; a condition that tells them apart may be missing. Equal values may be shown once. Inconclusive results and toxic doses are left out.

The test system of the assay is BDF1 mice, P388 leukemia ip, median survival T/C. The assay is described as follows: NCI In Vivo Anticancer Drug Screen. Data for tumor model P388 Leukemia (intraperitoneal) in B6D2F1 (BDF1) mice. The following applies: endpoint: median survival time, higher = longer survival. Put shortly:
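Antitumour effect was judged in vivo: survival in drug-treated mice, normalised to that of vehicle-dosed controls, gives the reported T/C.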

[1] abbreviates: dose: 100.0 mg/kg/injection, schedule: Q01DX009 (ip), vehicle: Klucel (hydroxypropylcellulose) (HPC).
Where [2] appears, read: dose: 200.0 mg/kg/injection, schedule: Q01DX009 (ip), vehicle: Klucel (hydroxypropylcellulose) (HPC).
Where [3] appears, read: dose: 400.0 mg/kg/injection, schedule: Q01DX009 (ip), vehicle: Klucel (hydroxypropylcellulose) (HPC).
Setting [4] is: dose: 100.0 mg/kg/injection, schedule: Q01DX009 (ip), vehicle: saline with Tween-80.
The mark [5] stands for this setting: dose: 200.0 mg/kg/injection, schedule: Q01DX009 (ip), vehicle: saline with Tween-80.
The mark [6] stands for this setting: dose: 400.0 mg/kg/injection, schedule: Q01DX009 (ip), vehicle: saline with Tween-80.
Where [7] appears, read: dose: 100.0 mg/kg/injection, schedule: Q04DX003 (ip), vehicle: saline with Tween-80.
[8] abbreviates: dose: 100.0 mg/kg/injection, schedule: Q01DX009 (ip), vehicle: saline.
Where [9] appears, read: dose: 200.0 mg/kg/injection, schedule: Q01DX009 (ip), vehicle: saline.
Setting [10] is: dose: 50.0 mg/kg/injection, schedule: Q01DX009 (ip), vehicle: saline with Tween-80.
The mark [11] stands for this setting: dose: 100.0 mg/kg/injection, schedule: Q04DX003 (ip), vehicle: Klucel (hydroxypropylcellulose) (HPC).
Setting [12] is: dose: 200.0 mg/kg/injection, schedule: Q04DX003 (ip), vehicle: Klucel (hydroxypropylcellulose) (HPC).

Turning to `Cc1ccc(S(=O)(=O)OCCC2CCCCC2COS(=O)(=O)c2ccc(C)cc2)cc1` (stereo not given), the T/C under setting [1] was 105 % of control, the T/C under setting [2] is 100 % of control and the T/C under setting [3] is 110 % of control.
Take `COC(=O)N1c2ccc(OC)cc2C=CC1C#N` (stereo not given): the T/C under setting [4] is 100 % of control, the T/C under setting [5] was 100 % of control and the T/C under setting [6] is 100 % of control.
Regarding `CCOC(=O)CCc1nc(C(=O)OCC)c(C)c2nnnn12`, the T/C reads like this: under setting [7], 99 % of control; (dose: 200.0 mg/kg/injection, schedule: Q04DX003 (ip), vehicle: saline with Tween-80) 108 % of control; (dose: 400.0 mg/kg/injection, schedule: Q04DX003 (ip), vehicle: saline with Tween-80) 95 % of control.
Turning to `CCCCCC(C)(C)O`, the T/C (dose: 50.0 mg/kg/injection, schedule: Q01DX009 (ip), vehicle: saline) is 95 % of control; the T/C under setting [8] is 104 % of control; the T/C (dose: 100.0 mg/kg/injection, schedule: Q04DX003 (ip), vehicle: saline) is 112 % of control; the T/C under setting [9] was 104 % of control; the T/C (dose: 200.0 mg/kg/injection, schedule: Q04DX003 (ip), vehicle: saline) is 100 % of control.
For the molecule `COc1ccc(C(=O)/C=C/c2ccccc2)c(O)c1CC=C(C)C` (tested in a mixture with another compound), the T/C (dose: 3.12 mg/kg/injection, schedule: Q01DX009 (ip), vehicle: Klucel (hydroxypropylcellulose) (HPC)) was 90 % of control; the T/C (dose: 6.25 mg/kg/injection, schedule: Q01DX009 (ip), vehicle: Klucel (hydroxypropylcellulose) (HPC)) was 102 % of control; the T/C (dose: 12.5 mg/kg/injection, schedule: Q01DX009 (ip), vehicle: Klucel (hydroxypropylcellulose) (HPC)) is 107 % of control; the T/C (dose: 25.0 mg/kg/injection, schedule: Q01DX009 (ip), vehicle: Klucel (hydroxypropylcellulose) (HPC)) was 109 % of control; the T/C (dose: 50.0 mg/kg/injection, schedule: Q01DX009 (ip), vehicle: Klucel (hydroxypropylcellulose) (HPC)) is 91 % of control; the T/C under setting [1] is 92 % of control.
Regarding `OCC1CSC(c2ccccc2)N1` (stereo not given), the T/C by setting is: under setting [10], 86 % of control; under setting [4], 115 % of control; under setting [5], 103 % of control.
In the case of `O=C(Nc1ccccc1)c1ccc(C(F)(F)F)cc1O`, the T/C was 99 % of control (dose: 16.5 mg/kg/injection, schedule: Q01DX009 (ip), vehicle: saline); 93 % of control (dose: 25.0 mg/kg/injection, schedule: Q01DX009 (ip), vehicle: saline); 112 % of control (dose: 35.0 mg/kg/injection, schedule: Q01DX009 (ip), vehicle: saline); 108 % of control under setting [8]; 95 % of control under setting [9].
With `O=C(O)/C=C/c1ccc(-c2cc(C(F)(F)F)cc(C(F)(F)F)c2)o1`, the T/C reads like this: under setting [10], 108 % of control; under setting [4], 90 % of control; under setting [5], 106 % of control.
For `COc1cc2c(cc1OC)C(=O)C(C(=O)c1ccccc1)C2` (stereo not given), the T/C is, setting by setting: under setting [1], 100 % of control; under setting [11], 100 % of control; under setting [2], 100 % of control; under setting [12], 100 % of control; under setting [3], 91 % of control; (dose: 400.0 mg/kg/injection, schedule: Q04DX003 (ip), vehicle: Klucel (hydroxypropylcellulose) (HPC)) 112 % of control.
On to `COc1cc2c(c(OC)c1OC)-c1cc(I)c(O)cc1[C@@H](NC(C)=O)CC2`, for which the T/C is 110 % of control (dose: 2.75 mg/kg/injection, schedule: Q04DX003 (ip), vehicle: saline with Tween-80); 104 % of control (dose: 5.5 mg/kg/injection, schedule: Q04DX003 (ip), vehicle: saline with Tween-80); 155 % of control (dose: 11.0 mg/kg/injection, schedule: Q04DX003 (ip), vehicle: saline with Tween-80); 160 % of control (dose: 22.0 mg/kg/injection, schedule: Q04DX003 (ip), vehicle: saline with Tween-80); 185 % of control and 222 % of control (dose: 66.0 mg/kg/injection, schedule: Q04DX003 (ip), vehicle: saline with Tween-80); 180 % of control and 194 % of control under setting [7]. The T/C (dose: 150.0 mg/kg/injection, schedule: Q04DX003 (ip), vehicle: saline with Tween-80) is 205 % of control.
For the molecule `O/N=C\CCC/C=N/O`, the T/C is, setting by setting: (dose: 50.0 mg/kg/injection, schedule: Q04DX003 (ip), vehicle: Klucel (hydroxypropylcellulose) (HPC)) 100 % of control; under setting [1], 91 % of control; under setting [11], 100 % of control; under setting [2], 95 % of control; under setting [12], 100 % of control; under setting [3], 95 % of control.
Regarding `CN(C)c1ccc(/C=C2\C=Cc3ccccc32)cc1F`, the T/C by setting is: (dose: 44.0 mg/kg/injection, schedule: Q04DX003 (ip), vehicle: saline sonified) 90 % of control; (dose: 66.0 mg/kg/injection, schedule: Q04DX003 (ip), vehicle: saline sonified) 100 % of control; (dose: 100.0 mg/kg/injection, schedule: Q01DX009 (ip), vehicle: saline sonified) 104 % of control; (dose: 100.0 mg/kg/injection, schedule: Q04DX003 (ip), vehicle: saline sonified) 90 % of control; (dose: 150.0 mg/kg/injection, schedule: Q04DX003 (ip), vehicle: saline sonified) 95 % of control; (dose: 200.0 mg/kg/injection, schedule: Q01DX009 (ip), vehicle: saline sonified) 100 % of control. In addition, the T/C (dose: 200.0 mg/kg/injection, schedule: Q04DX003 (ip), vehicle: saline sonified) was 110 % of control; the T/C (dose: 400.0 mg/kg/injection, schedule: Q01DX009 (ip), vehicle: saline sonified) is 104 % of control; the T/C (dose: 400.0 mg/kg/injection, schedule: Q04DX003 (ip), vehicle: saline sonified) was 120 % of control.
Regarding `CCOC/C(C)=C/Cl`, the T/C (dose: 50.0 mg/kg/injection, schedule: Q01DX009 (ip), vehicle: acetone) is 104 % of control; the T/C (dose: 100.0 mg/kg/injection, schedule: Q01DX009 (ip), vehicle: acetone) was 116 % of control; the T/C (dose: 200.0 mg/kg/injection, schedule: Q01DX009 (ip), vehicle: acetone) is 112 % of control.
As for `Cc1cc(NC(=O)Nc2cccc(C3=NCCN3)c2)ccc1NC(=O)Nc1cccc(C2=NCCN2)c1`, the T/C reads like this: under setting [4], 118 % of control; under setting [6], 190 % of control.
`COc1ccc(C(=O)/C=N/O)cc1`: the T/C was 86 % of control (dose: 25.0 mg/kg/injection, schedule: Q01DX009 (ip), vehicle: saline with Tween-80); 100 % of control under setting [10]; 90 % of control under setting [4].
Turning to `C[CH2][Pb]([CH2]C)([CH2]C)[O]C(=O)CBr`, the T/C (dose: 2.0 mg/kg/injection, schedule: Q01DX009 (ip), vehicle: other) was 109 % of control; the T/C (dose: 4.5 mg/kg/injection, schedule: Q01DX009 (ip), vehicle: other) was 101 % of control; the T/C (dose: 6.0 mg/kg/injection, schedule: Q01DX009 (ip), vehicle: Klucel (hydroxypropylcellulose) (HPC)) is 120 % of control; the T/C (dose: 12.0 mg/kg/injection, schedule: Q01DX009 (ip), vehicle: Klucel (hydroxypropylcellulose) (HPC)) is 103 % of control.
In the case of `COc1cc(/C=N\N=C\c2ccc(O)c(OC)c2)ccc1O`, the T/C (dose: 100.0 mg/kg/injection, schedule: Q01DX001 (ip), vehicle: saline with Tween-80) is 100 % of control; the T/C (dose: 200.0 mg/kg/injection, schedule: Q01DX001 (ip), vehicle: saline with Tween-80) is 104 % of control; the T/C (dose: 400.0 mg/kg/injection, schedule: Q01DX001 (ip), vehicle: saline with Tween-80) is 100 % of control.
With `Cc1c(NC(=O)Nc2cccc(F)c2)c(=O)n(-c2ccccc2)n1C`, the T/C was 120 % of control under setting [4], 95 % of control under setting [5] and 90 % of control under setting [6].
Turning to `CCOc1ccc(N2CC(=O)N3CCCN3C(=O)C2)cc1`, the T/C (dose: 100.0 mg/kg/injection, schedule: Q01DX005 (ip), vehicle: saline with Tween-80) was 88 % of control.
As for `O=C1c2c(Cl)c(Cl)c(Cl)c(Cl)c2C(=O)N1c1ccccc1-c1ccccc1`, the T/C is 89 % of control (dose: 175.0 mg/kg/injection, schedule: Q01DX009 (ip), vehicle: saline with Tween-80) and 94 % of control (dose: 350.0 mg/kg/injection, schedule: Q01DX009 (ip), vehicle: saline with Tween-80).
